# According to ChEMBL document CHEMBL1201862, “PubChem BioAssay data set” (2004):
# Calls of active or inactive are those of the source.
# Experiments:
# [1] = HEp-2 cell cytotoxicity, dose response, cytotoxicity control for RSV inhibitor project, HTS (AID 2410); assay type: functional; conditions: human respiratory syncytial virus
# [2] = cells
# [3] = target: T1, Estrogen receptor (Homo sapiens, UniProt P03372);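 also: potency for inhibiting coactivator peptide recruitment to the receptor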
# T1 sequence (P03372 whole entry): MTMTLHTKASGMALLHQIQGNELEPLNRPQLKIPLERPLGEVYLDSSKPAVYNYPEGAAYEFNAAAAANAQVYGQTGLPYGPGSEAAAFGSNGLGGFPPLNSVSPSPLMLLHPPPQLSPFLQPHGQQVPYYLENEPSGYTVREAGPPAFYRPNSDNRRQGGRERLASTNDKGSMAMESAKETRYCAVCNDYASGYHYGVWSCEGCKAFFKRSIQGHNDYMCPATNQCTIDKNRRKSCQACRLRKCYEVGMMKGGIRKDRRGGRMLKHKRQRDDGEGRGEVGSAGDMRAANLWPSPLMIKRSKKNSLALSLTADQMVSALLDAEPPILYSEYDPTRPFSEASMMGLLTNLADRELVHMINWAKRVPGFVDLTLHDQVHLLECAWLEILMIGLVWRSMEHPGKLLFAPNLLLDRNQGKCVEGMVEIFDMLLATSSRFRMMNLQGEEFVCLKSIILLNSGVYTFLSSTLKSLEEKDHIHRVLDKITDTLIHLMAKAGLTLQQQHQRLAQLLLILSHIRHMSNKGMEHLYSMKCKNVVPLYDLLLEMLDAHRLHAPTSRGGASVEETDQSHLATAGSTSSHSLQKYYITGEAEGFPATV
# [4] = target: Voltage-dependent T-type calcium channel subunit alpha-1H (Homo sapiens, UniProt O95180); assay type: functional;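 also: channel activity triggered by adding a high calcium stimulation buffer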
# [5] = target: Polyadenylate-binding protein 1 (Homo sapiens, UniProt P11940); test: PABP poly(A) RNA binding inhibitors, primary screen, biochemical, fluorescence polarization, uHTS (AID 2014)
# [6] = target: Eukaryotic translation initiation factor 4H (Homo sapiens, UniProt Q15056); test: human eIF4H binding inhibitors, primary screen, translation initiation inhibitor project, biochemical, uHTS, fluorescence polarization (AID 2012)
# [7] = target: Eukaryotic translation initiation factor 4E (Mus musculus, UniProt P63073); test: eIF4E–eIF4G protein interaction inhibitors, dose response, biochemical, TR-FRET (AID 855); assay type: functional;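 also: potency for disrupting eIF4E binding to eIF4GI seen as loss of FRET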
# [8] = cytotoxicity toward NIH3T3 fibroblasts, dose response, counter-screen, cell-based, ATP luminescence, mouse fibroblasts (AID 2010); assay type: functional;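 also: cells exposed to compound for about 90 hours before reading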
# [9] = inhibitors of intracellular T. cruzi replication, confirmation, NIH3T3 host cells, beta-gal luminescence (AID 2044); assay type: functional, cell-based;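 also: intracellular parasites grown in NIH/3T3 mouse fibroblasts as host cells; luminescent beta-galactosidase reporter signal from transgenic T. cruzi replicating inside host cells; inhibitors lower the luminescence signal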
# [10] = cells; remark: listed apart in the source
# [11] = target: T2, Bcl-2-related protein A1 (Mus musculus, UniProt Q07440); test: Bfl-1 binding inhibitors, SAR follow-up, biochemical, fluorescence polarization (AID 1070)
# T2 sequence (Q07440 whole entry): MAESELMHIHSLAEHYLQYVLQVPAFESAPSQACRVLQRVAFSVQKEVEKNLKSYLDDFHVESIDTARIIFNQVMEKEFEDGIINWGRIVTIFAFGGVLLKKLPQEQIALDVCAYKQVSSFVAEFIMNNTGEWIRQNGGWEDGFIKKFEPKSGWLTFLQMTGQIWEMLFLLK
# [12] = target: T2, Bcl-2-related protein A1; test: Bfl-1 inhibitors blocking BH3 peptide binding, confirmation, biochemical, TR-FRET, mouse Bfl-1 (AID 621);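 also: TR-FRET binding of GST-Bfl-1 to FITC-labelled Bid peptide via terbium antibody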
# [13] = target: Glyceraldehyde-3-phosphate dehydrogenase (Homo sapiens, UniProt P04406)
# [14] = target: DNA dC->dU-editing enzyme APOBEC-3G (Homo sapiens, UniProt Q9HC16); assay type: functional;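 also: Dose-response counterscreen measuring inhibition of APOBEC3G DNA deaminase activity, run while confirming APOBEC3A inhibitors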
# [15] = target: DNA dC->dU-editing enzyme APOBEC-3A (Homo sapiens, UniProt P31941); test: Dose Response confirmation of small molecule APOBEC3A DNA Deaminase Inhibitors via a fluorescence-based single-stranded DNA deaminase assay. [Related pubchem assays (depositor defined):AID493011, AID493024]; assay type: functional
# [16] = target: T3, Short transient receptor potential channel 4 (Mus musculus, UniProt Q9QUQ5); test: mouse TRPC4 channel activators, dose response, cell-based, HEK293 TRPC4/mu-opioid, Fluo-4 calcium (AID 434937); assay type: functional
# T3 sequence (Q9QUQ5 whole entry): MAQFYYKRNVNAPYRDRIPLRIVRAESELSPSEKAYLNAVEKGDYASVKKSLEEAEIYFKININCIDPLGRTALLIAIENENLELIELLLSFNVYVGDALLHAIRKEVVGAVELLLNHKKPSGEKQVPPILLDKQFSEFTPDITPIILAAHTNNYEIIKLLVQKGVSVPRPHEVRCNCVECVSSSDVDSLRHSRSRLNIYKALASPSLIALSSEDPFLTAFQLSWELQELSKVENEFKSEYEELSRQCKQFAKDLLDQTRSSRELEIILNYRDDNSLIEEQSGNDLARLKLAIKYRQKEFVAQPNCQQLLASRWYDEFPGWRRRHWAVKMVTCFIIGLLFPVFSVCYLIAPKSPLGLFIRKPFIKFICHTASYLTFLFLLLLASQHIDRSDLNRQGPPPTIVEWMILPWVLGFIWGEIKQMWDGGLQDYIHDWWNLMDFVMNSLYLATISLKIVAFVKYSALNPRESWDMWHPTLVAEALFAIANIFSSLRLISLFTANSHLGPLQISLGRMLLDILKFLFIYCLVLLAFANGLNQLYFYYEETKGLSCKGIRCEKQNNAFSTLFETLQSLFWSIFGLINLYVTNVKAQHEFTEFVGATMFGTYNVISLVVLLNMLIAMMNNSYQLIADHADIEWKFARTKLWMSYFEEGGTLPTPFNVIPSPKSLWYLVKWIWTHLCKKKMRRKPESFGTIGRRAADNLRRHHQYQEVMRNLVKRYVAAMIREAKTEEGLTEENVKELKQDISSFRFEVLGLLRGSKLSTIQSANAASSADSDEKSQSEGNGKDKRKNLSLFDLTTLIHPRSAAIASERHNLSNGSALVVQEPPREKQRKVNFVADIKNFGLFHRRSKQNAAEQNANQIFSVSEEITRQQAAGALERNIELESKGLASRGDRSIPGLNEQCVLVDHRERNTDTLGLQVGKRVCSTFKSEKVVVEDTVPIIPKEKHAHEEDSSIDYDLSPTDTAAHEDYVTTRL
# [17] = target: T4, Calpain-2 catalytic subunit (Sus scrofa, UniProt P43367); test: pig calpain II inhibitor potency, dose response, biochemical, fluorogenic peptide substrate (AID 1420); assay type: functional
# T4 sequence (P43367 whole entry): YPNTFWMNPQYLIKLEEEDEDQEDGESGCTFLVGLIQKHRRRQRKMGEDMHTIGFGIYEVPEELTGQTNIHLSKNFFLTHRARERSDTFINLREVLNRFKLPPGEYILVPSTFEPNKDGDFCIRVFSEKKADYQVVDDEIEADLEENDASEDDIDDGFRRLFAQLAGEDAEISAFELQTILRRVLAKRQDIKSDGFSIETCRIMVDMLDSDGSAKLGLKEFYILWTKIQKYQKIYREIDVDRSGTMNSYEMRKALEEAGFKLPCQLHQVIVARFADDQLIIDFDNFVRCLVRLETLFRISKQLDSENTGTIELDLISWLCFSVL
# [18] = test system: Streptococcus sp. 'group A'; test: growth inhibition of control SK(-) GAS strain, dose response, counter-screen for streptokinase expression inhibitor project, luminescence, kanamycin, BacTiterGlo, confirmation (AID 1900); assay type: functional, organism-based
# [19] = target: T5, Streptokinase A (Streptococcus pyogenes serotype M1, UniProt P10520); test: S. pyogenes streptokinase expression inhibitors, potency, dose response, plasminogen activation absorbance, OD405 (AID 1914); assay type: functional, Streptococcus pyogenes M1 GAS;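 also: secreted streptokinase activity via plasminogen activation per viability signal from cell pellet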
# T5 sequence (P10520 whole entry): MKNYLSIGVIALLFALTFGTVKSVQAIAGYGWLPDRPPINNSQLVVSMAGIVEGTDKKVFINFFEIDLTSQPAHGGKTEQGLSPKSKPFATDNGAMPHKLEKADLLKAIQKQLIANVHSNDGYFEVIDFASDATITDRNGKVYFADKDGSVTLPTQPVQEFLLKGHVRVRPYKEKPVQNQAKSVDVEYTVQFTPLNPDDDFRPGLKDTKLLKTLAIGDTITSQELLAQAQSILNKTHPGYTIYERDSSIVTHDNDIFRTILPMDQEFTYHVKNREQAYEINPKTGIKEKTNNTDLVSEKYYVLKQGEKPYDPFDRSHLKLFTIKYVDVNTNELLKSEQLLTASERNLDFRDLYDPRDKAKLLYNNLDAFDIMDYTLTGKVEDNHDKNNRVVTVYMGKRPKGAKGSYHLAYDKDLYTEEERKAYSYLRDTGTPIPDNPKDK
# [20] = LGR2 antagonists, dose response, cell-based, HEK293, CRE-luciferase reporter, cherry pick, set 2 (AID 743343); assay type: functional;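 also: transfected cells were stimulated with diluted bursicon conditioned medium after compound addition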
# [21] = test system: Streptococcus; test: Group A Streptococcus viability loss, dose response, counter-screen for streptokinase expression inhibitor project, luminescence, BacTiterGlo (AID 1915); assay type: functional, organism-based;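 also: potency for reduction of bacterial viability or growth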
# [22] = target: T6, Microphthalmia-associated transcription factor (Homo sapiens, UniProt O75030); test: TRPM1 promoter luciferase signal decrease, dose response, MITF inhibitor project, cell-based, SK-MEL-5, cherry-picked, set 3 (AID 493073); assay type: functional
# T6 sequence (O75030 whole entry): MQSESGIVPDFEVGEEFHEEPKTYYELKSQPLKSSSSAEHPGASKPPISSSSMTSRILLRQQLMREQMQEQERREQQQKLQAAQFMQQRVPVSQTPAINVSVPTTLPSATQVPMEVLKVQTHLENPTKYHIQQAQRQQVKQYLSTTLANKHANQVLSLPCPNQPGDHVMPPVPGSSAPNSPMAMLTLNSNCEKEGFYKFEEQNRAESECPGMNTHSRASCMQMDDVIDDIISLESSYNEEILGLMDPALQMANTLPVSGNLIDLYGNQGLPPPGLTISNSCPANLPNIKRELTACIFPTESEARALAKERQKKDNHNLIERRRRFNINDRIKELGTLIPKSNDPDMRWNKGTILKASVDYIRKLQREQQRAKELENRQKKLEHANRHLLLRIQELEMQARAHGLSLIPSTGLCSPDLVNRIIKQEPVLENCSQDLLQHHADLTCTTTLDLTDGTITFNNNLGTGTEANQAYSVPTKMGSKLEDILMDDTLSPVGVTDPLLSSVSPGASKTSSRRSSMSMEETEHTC
# [23] = MC4R antagonists, dose response, counter-screen for LGR2 antagonist project, cell-based, plate reader, cherry pick (AID 743444); assay type: functional;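 also: transfected HEK 293 cells stimulated with alpha-MSH peptide; potency of inhibitors of the alpha-MSH evoked signal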
# [24] = target: Induced myeloid leukemia cell differentiation protein Mcl-1 (Homo sapiens, UniProt Q07820); assay type: functional
# [25] = target: T3, Short transient receptor potential channel 4; test: mouse TRPC4 channel inhibitors, dose response, cell-based, HEK293 TRPC4/mu-opioid, Fluo-4 calcium (AID 434942); assay type: functional;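 also: potency of inhibitors blocking the TRPC4 calcium response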
# Sequence of Polyadenylate-binding protein 1 (P11940 whole entry): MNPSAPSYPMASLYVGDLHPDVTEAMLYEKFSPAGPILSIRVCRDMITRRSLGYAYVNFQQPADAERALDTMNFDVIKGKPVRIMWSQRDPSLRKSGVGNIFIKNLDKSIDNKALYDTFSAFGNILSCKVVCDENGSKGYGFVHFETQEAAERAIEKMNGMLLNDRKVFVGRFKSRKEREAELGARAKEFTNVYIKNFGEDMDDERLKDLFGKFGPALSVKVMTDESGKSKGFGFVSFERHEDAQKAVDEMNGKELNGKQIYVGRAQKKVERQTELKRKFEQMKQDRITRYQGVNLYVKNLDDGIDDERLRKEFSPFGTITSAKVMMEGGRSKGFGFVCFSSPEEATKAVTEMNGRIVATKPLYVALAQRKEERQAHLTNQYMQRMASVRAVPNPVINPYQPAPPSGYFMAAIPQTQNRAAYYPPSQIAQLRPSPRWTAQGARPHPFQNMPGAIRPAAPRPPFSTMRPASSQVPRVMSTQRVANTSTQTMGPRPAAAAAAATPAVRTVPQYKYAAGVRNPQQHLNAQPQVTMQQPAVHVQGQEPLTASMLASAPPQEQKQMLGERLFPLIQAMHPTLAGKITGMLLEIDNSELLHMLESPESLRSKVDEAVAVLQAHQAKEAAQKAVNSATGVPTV
# Sequence of Glyceraldehyde-3-phosphate dehydrogenase (P04406 whole entry): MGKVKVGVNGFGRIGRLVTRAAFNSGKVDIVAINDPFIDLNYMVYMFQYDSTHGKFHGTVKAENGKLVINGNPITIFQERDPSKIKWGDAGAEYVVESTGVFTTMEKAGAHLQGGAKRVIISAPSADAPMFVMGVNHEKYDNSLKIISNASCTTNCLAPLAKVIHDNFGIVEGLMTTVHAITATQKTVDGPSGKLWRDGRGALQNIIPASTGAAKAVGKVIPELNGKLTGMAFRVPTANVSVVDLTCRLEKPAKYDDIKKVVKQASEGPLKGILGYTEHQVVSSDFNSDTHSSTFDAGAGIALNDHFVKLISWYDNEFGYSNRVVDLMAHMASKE
# Sequence of DNA dC->dU-editing enzyme APOBEC-3G (Q9HC16 whole entry): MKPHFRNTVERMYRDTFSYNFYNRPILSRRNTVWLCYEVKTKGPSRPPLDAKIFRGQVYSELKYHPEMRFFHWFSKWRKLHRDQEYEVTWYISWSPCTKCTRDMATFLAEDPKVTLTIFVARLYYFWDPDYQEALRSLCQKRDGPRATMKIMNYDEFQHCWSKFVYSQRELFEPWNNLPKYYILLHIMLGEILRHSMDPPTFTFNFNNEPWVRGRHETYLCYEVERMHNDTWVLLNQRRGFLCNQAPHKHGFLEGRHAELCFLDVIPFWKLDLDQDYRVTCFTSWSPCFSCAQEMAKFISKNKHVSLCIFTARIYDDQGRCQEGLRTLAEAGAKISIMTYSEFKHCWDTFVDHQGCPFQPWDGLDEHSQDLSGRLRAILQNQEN
# Sequence of DNA dC->dU-editing enzyme APOBEC-3A (P31941 whole entry): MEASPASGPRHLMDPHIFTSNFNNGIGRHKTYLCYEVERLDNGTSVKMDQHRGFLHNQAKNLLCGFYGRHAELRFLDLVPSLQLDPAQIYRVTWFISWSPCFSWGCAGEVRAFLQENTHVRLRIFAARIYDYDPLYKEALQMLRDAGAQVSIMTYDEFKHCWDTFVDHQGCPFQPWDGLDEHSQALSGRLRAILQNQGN
# Sequence of Voltage-dependent T-type calcium channel subunit alpha-1H (O95180 whole entry): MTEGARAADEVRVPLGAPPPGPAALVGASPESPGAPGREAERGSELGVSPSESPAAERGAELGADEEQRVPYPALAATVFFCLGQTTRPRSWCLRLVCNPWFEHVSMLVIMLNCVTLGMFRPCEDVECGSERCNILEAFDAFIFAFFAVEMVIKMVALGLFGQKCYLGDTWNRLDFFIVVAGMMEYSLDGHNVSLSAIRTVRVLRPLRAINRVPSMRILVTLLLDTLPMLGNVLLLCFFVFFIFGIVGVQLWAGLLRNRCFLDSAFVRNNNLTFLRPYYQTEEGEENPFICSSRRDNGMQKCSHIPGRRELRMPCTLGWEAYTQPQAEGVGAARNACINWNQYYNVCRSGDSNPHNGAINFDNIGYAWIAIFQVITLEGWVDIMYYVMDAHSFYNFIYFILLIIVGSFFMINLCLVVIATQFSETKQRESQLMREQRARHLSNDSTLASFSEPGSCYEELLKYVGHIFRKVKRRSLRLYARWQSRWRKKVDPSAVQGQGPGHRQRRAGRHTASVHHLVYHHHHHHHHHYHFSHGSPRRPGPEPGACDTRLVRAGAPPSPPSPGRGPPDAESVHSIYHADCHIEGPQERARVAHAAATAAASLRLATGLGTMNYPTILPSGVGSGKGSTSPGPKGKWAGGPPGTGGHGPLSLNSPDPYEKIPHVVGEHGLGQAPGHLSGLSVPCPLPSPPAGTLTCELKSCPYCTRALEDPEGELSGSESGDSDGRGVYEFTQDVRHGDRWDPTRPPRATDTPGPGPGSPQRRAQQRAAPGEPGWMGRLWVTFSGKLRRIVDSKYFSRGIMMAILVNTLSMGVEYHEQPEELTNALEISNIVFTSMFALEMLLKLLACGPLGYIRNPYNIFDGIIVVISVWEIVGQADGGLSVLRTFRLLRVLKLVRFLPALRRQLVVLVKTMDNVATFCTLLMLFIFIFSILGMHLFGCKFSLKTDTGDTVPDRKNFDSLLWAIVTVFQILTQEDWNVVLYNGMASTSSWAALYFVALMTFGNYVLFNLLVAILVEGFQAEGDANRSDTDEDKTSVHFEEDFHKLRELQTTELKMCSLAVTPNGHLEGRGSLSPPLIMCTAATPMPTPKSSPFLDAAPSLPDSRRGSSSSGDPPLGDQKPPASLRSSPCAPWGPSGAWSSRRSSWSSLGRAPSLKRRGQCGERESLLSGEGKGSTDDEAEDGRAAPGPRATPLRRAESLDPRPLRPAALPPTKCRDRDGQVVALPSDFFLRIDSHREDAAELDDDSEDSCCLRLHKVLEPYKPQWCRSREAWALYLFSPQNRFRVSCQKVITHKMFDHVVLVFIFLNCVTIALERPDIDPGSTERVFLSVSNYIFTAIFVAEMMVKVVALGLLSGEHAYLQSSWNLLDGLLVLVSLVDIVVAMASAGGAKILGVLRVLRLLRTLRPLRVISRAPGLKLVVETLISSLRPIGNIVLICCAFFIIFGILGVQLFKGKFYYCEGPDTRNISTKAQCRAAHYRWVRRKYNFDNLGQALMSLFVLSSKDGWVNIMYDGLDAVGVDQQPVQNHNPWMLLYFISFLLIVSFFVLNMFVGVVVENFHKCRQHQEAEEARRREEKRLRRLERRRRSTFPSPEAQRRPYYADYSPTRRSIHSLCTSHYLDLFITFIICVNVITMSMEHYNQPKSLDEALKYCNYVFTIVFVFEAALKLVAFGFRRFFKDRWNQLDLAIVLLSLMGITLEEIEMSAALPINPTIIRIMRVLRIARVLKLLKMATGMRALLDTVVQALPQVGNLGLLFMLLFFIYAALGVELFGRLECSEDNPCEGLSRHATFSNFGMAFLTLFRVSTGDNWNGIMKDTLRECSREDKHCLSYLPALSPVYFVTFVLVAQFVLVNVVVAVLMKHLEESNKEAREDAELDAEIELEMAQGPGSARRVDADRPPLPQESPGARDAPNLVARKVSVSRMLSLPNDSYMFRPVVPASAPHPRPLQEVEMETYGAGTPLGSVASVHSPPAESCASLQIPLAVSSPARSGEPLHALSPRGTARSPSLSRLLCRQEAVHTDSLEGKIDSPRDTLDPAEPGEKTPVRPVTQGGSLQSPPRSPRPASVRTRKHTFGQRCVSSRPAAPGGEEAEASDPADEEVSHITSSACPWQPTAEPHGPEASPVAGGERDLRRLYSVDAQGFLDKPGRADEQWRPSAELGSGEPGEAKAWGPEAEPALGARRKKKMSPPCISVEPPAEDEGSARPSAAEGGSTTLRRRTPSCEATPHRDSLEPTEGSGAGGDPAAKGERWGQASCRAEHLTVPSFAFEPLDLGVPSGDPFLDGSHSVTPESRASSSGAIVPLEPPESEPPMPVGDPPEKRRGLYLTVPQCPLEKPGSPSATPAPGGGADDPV
# Sequence of Induced myeloid leukemia cell differentiation protein Mcl-1 (Q07820 whole entry): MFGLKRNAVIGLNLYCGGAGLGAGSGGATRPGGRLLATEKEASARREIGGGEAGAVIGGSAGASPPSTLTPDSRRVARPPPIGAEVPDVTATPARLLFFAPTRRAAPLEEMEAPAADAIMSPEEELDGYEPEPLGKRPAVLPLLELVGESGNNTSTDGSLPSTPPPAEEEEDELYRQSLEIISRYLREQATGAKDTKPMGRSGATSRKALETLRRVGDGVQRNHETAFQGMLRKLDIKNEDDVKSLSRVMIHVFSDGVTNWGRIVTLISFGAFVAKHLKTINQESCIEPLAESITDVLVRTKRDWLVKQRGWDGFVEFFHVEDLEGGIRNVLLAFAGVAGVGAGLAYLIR
# Sequence of Eukaryotic translation initiation factor 4E (P63073 whole entry): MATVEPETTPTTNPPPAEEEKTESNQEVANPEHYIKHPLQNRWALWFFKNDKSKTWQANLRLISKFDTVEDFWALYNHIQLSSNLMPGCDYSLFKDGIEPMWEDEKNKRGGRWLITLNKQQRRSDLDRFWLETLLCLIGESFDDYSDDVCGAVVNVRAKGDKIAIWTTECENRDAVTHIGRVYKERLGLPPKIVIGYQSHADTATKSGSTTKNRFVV
structure (smiles),measurement,setting,value
COc1cccc(NC(=O)CSc2nc3ccccc3nc2N2CCCC2)c1,CC50,[1],17.2 µM (active)
same,IC50,[2],30.5 µM (active)
CC(=O)c1cccc(NC(=O)Cc2cccs2)c1,IC50,[3],18.5 µM (active)
Cc1cc(NC(=O)CSc2cn(CCNC(=O)c3ccc(Cl)cc3)c3ccccc23)no1,EC50,[4],0.13 µM (active)
same,IC50,[3],24.9 µM (active)
O=C(CSc1nc2ccccc2c(=O)n1-c1ccccc1)NCC1CCCO1 (stereo unspecified),IC50,[5],6.35 µM (active)
same,IC50,[6],> 100 µM (inactive)
C=CCn1c(S)nnc1-c1ccoc1,IC50,[7],> 64 µM (inactive)
COc1ccc(CCNCc2ccc(OCc3ccc(Cl)nc3)c(OC)c2)cc1OC,EC50,[8],> 60 µM (inconclusive)
same,EC50,[9],< 0.1 µM (active)
same,EC50,[10],0.048 µM (active)
CN(C)C1=C(Cl)C(=O)N(c2ccc(Cl)c(Cl)c2)C1=O,IC50,[11],0.419 µM (active)
same,IC50,[12],0.54 µM (active)
same,IC50,[13],> 100 µM (not active)
CC(Oc1ccc(Cl)cc1Cl)C(=O)NNC(=O)C(=O)N1CCCCC1 (stereo unspecified),CC50,[1],> 50 µM (active)
same,IC50,[2],40.6 µM (active)
O=C1C(Cl)=C(N2CCOCC2)C(=O)N1c1cccc([N+](=O)[O-])c1,IC50,[11],9.68 µM (active)
same,IC50,[12],8.21 µM (active)
same,IC50,[13],> 100 µM (not active)
C=CCNC1=N[C@@H](c2cccc(C(F)(F)F)c2)C(C(=O)OC)=C(C)N1CC,IC50,[14],3.81 µM (active)
same,IC50,[5],9.23 µM (active)
same,IC50,[6],> 100 µM (inactive)
same,IC50,[15],3.56 µM (active)
COc1ccccc1/C=C/CN1CCCC(CCC(=O)NCc2ccccc2F)C1 (stereo unspecified),EC50,[8],> 60 µM (not active)
same,EC50,[16],0.473 µM (active)
same,EC50,[9],< 0.1 µM (active)
same,EC50,[10],0.025 µM (active)
O=C(O)c1ccc(N/N=C/c2ccc(OC(=O)c3cccc(Cl)c3)cc2)cc1,IC50,[17],3.04 µM (not active)
same,EC50,[18],0.834 µM (active)
same,EC50,[19],> 150 µM (not active)
same,AC50,[20],2.03 µM (active)
same,EC50,[21],15.5 µM (active)
same,AC50,[22],3.21 µM (active)
same,AC50,[23],1.21 µM (active)
same,IC50,[24],8.08 µM (active)
Clc1ccc(C[n+]2cc(-c3ccccc3)n3c2CCC3)cc1Cl,EC50,[8],> 30 µM (not active)
same,EC50,[9],< 0.1 µM (active)
same,EC50,[10],0.004 µM (active)
same,EC50,[25],3.76 µM (active)
CCOC(=O)c1ccc2c(c1)[n+](CCO)c(C)n2CC,IC50,[5],3.29 µM (active)
same,IC50,[6],> 100 µM (inactive)
CN1CCN(C2=C(Cl)C(=O)N(c3ccccc3Cl)C2=O)CC1,IC50,[11],2.16 µM (active)
same,IC50,[12],1.45 µM (active)
same,IC50,[13],> 100 µM (not active)
Cc1ccc(OCCn2c(C3CC(=O)N(Cc4ccccc4)C3)nc3ccccc32)cc1 (stereo unspecified),CC50,[1],25.4 µM (active)
same,IC50,[2],3.14 µM (active)
